In patent US20240299384A1, “METHODS FOR TREATING PULMONARY HYPERTENSION IN PATIENTS WITH LEFT VENTRICULAR ASSIST DEVICE IMPLANTATION” (ACTELION PHARMACEUTICALS LTD, priority 2021, published 2024):

Tested on: patients with PH post-LVAD implantation
Test: Phase 2 study in PH post-LVAD implantation: adverse events (Safety Set)
Format: in vivo
Experimental: This is a double-blind, placebo-controlled, multicenter, parallel-group Phase 2 study assessing the efficacy and safety of macitentan in PH post-LVAD implantation. Approximately 57 adult patients with PH post-LVAD implantation were randomized (1:1) to receive either macitentan 10 mg, or matching placebo, once daily orally.
• Treatment-emergent AEs up to 30 days after treatment discontinuation. • AEs leading to premature discontinuation of treatment. • Death up to 30 days after treatment discontinuation. • Treatment-emergent SAEs up to 30 days after treatment discontinuation. • Change from Baseline to EOT in vital signs. • Occurrence of liver function test (ALT and/or AST) abnormality (≥3×ULN; ≥3 and <5×ULN; ≥5 and <8×ULN; ≥8×ULN) up to EOT. • Occurrence of ALT and/or AST abnormality ≥3×ULN associated with bilirubin ≥2×ULN up to EOT. • Proportion of patients with treatment-emergent hemoglobin abnormality (<10.0 g/dL, and <8.0 g/dL) as compared to Baseline up to EOT. • Treatment-emergent marked laboratory abnormalities up to EOT.
An AE is any adverse change, i.e., any unfavorable and unintended sign, including an abnormal laboratory finding, symptom, or disease that occurs in a patient. AEs include: • Exacerbation of a pre-existing disease. • Increase in frequency or intensity of a pre-existing episodic disease or medical condition. • Disease or medical condition detected or diagnosed even though it may have been present prior to the start of the treatment. • Continuous persistent disease or symptoms present at treatment start that worsen following the start. • Abnormal assessments, e.g., change on physical examination, ECG findings, if they represent a clinically significant finding that was not present at treatment start or worsened during the course of the treatment. • Laboratory test abnormalities if they represent a clinically significant finding, symptomatic or not, which was not present at treatment start or worsened during the course of the treatment or led to dose reduction, interruption or permanent discontinuation of treatment.
A treatment-emergent AE is any AE temporally associated with the use of treatment (from treatment initiation until 30 days after treatment discontinuation). Overdose, misuse, and abuse of the treatment may be considered an AE.
The intensity of clinical AEs is graded on a three-point scale-mild, moderate, severe. The three categories of intensity are defined as follows: • Mild: The event may be noticeable to the patient. […] Performance of daily activities may be influenced, and intervention may be needed. • Severe: The event may cause noticeable discomfort, and usually interferes with daily activities. The patient may not be able to continue, and treatment or intervention is usually needed.
An SAE is defined by the ICH guidelines as any AE fulfilling at least one of the following criteria: • Fatal. • Life-threatening: refers to an event in which the patient was at risk of death at the time of the event.
Safety Set (SS): The SS includes all patients receiving at least one dose of drug in the treatment period.
A treatment-emergent AE is any AE temporally associated with the use of a treatment. The number and percentage of patients experiencing treatment-emergent AEs and SAEs at least once are tabulated by treatment group and by: • MedDRA SOC and individual preferred term within each SOC, in descending order of incidence. • Frequency of patients with events coded with the same preferred term, in descending order of incidence.

[1] = AEs leading to treatment discontinuation, SS, N = 28
[2] = SMQs for anemia, hypotension, edema/fluid retention, 10 mg once daily, N = 28
[3] = frequently reported AEs, SS, N = 28
[4] = treatment-emergent, 10 mg once daily, N = 28

In the case of `CCCNS(=O)(=O)Nc1ncnc(OCCOc2ncc(Br)cn2)c1-c1ccc(Br)cc1` [Macitentan, propylsulfamic acid [5-(4-bromo-phenyl)-6-[2-(5-bromo-pyrimidin-2-yloxy)-ethoxy]-pyrimidin-4-yl]-amide], the “Any Treatment-Related Adverse Event Leading to Treatment Discontinuation, number of patients” value (10 mg once daily, N = 28) is reported as 2, the “Any Treatment-Related Adverse Event Leading to Treatment Discontinuation, percent of patients” value (10 mg once daily, N = 28) is reported as “(7.1) %” and the “Acute kidney injury, number of patients” value [1] is reported as 1. The “Acute kidney injury, percent of patients” value [1] was 3.6%, the “Anaemia, number of patients” value [1] was 0 and the “Blood alkaline phosphatase increased, number of patients” value [1] was 1. For the same compound, the “Blood alkaline phosphatase increased, percent of patients” value [1] was 3.6%, the “Blood and lymphatic system disorders, number of patients” value [1] was 0 and the “Blood bilirubin increased, number of patients” value [1] was 1. For the same compound, the “Blood bilirubin increased, percent of patients” value [1] was 3.6%, the “Cardiac disorders, number of patients” value [1] was 1 and the “Cardiac disorders, percent of patients” value [1] was 3.6%. For the same compound, the “Cerebral haemorrhage, number of patients” value [1] was 1, the “Cerebral haemorrhage, percent of patients” value [1] was 3.6% and the “General disorders and administration site conditions, number of patients” value [1] was 1. The “General disorders and administration site conditions, percent of patients” value [1] was 3.6%, the “Haemolysis, number of patients” value [1] was 0 and the “Haemorrhagic stroke, number of patients” value [1] was 0. The “International normalised ratio increased, number of patients” value [1] was 1, the “International normalised ratio increased, percent of patients” value [1] was 3.6% and the “Investigations, number of patients” value [1] was 1. For the same compound, the “Investigations, percent of patients” value [1] was 3.6%, the “Liver function test increased, number of patients” value [1] was 1 and the “Liver function test increased, percent of patients” value [1] was 3.6%. For the same compound, the “Nervous system disorders, number of patients” value [1] was 1, the “Nervous system disorders, percent of patients” value [1] was 3.6% and the “Oedema peripheral, number of patients” value [1] was 1. The “Oedema peripheral, percent of patients” value [1] was 3.6%, the “Renal and urinary disorders, number of patients” value [1] was 1 and the “Renal and urinary disorders, percent of patients” value [1] was 3.6%. For the same compound, the “Right ventricular failure, number of patients” value [1] was 1, the “Right ventricular failure, percent of patients” value [1] was 3.6% and the “Any Events of Interest, number of patients” value [2] was 10. The “Any Events of Interest, percent of patients” value [2] was “(35.7) %”, the “Any Adverse Event Leading to Treatment Discontinuation, number of patients” value (SS, 10 mg once daily, N = 28) was 4 and the tolerability in words (early post-LVAD population, 10 mg once daily) was “well tolerated”. For the same compound, the “Acute kidney injury, number of patients” value [3] was 3, the “Acute kidney injury, percent of patients” value [3] was “(10.7) %” and the “Anticoagulation drug level below therapeutic, number of patients” value [3] was 4. For the same compound, the “Anticoagulation drug level below therapeutic, percent of patients” value [3] was “(14.3) %”, the “Complication associated with device, number of patients” value [3] was 0 and the “Cystatin C increased, number of patients” value [3] was 3. For the same compound, the “Cystatin C increased, percent of patients” value [3] was “(10.7) %”, the “Dehydration, number of patients” value [3] was 0 and the “Dizziness, number of patients” value [3] was 4. The “Dizziness, percent of patients” value [3] was “(14.3) %”, the “Dyspnoea, number of patients” value [3] was 4 and the “Dyspnoea, percent of patients” value [3] was “(14.3) %”. The “Fall, number of patients” value [3] was 0, the “Fatigue, number of patients” value [3] was 4 and the “Fatigue, percent of patients” value [3] was “(14.3) %”. The “Hyperkalaemia, number of patients” value [3] was 3, the “Hyperkalaemia, percent of patients” value [3] was “(10.7) %” and the “Hypotension, number of patients” value [3] was 3. For the same compound, the “Hypotension, percent of patients” value [3] was “(10.7) %”, the “N-terminal prohormone brain natriuretic peptide increased, number of patients” value [3] was 4 and the “N-terminal prohormone brain natriuretic peptide increased, percent of patients” value [3] was “(14.3) %”. The “Oedema peripheral, number of patients” value [3] was 4, the “Oedema peripheral, percent of patients” value [3] was “(14.3) %” and the “Ventricular tachycardia, number of patients” value [3] was 1. The “Ventricular tachycardia, percent of patients” value [3] was “(3.6) %”, the “Vomiting, number of patients” value [3] was 2 and the “Vomiting, percent of patients” value [3] was “(7.1) %”. The “safety profile in words” value (post-LVAD implantation patients, 10 mg once daily) was “favorable safety profile”, the “Acute kidney injury, number of patients” value (serious AEs, N = 28) was 2 and the “Acute kidney injury, percent of patients” value (serious AEs, N = 28) was “(7.1) %”. For the same compound, the “Anticoagulation drug level below therapeutic level, number of patients” value (serious AEs, N = 28) was 3, the “Anticoagulation drug level below therapeutic level, percent of patients” value (serious AEs, N = 28) was “(10.7) %” and the “Complication associated with device, number of patients” value (serious AEs, N = 28) was 0. For the same compound, the “Dehydration, number of patients” value (serious AEs, N = 28) was 0, the “Gastrointestinal hemorrhage, number of patients” value (serious AEs, N = 28) was 0 and the “Pleural effusion, number of patients” value (serious AEs, N = 28) was 2. For the same compound, the “Pleural effusion, percent of patients” value (serious AEs, N = 28) was “(7.1) %”, the “Right ventricular failure, number of patients” value (serious AEs, N = 28) was 2 and the “Right ventricular failure, percent of patients” value (serious AEs, N = 28) was “(7.1) %”. For the same compound, the “Septic shock, number of patients” value (serious AEs, N = 28) was 2, the “Septic shock, percent of patients” value (serious AEs, N = 28) was “(7.1) %” and the “Ventricular tachycardia, number of patients” value (serious AEs, N = 28) was 0. The “Any Adverse Event With Outcome of Death, number of patients” value [4] was 1, the “Any Adverse Event With Outcome of Death, percent of patients” value [4] was “(3.6) %” and the “Any Adverse Event, number of patients” value [4] was 26. For the same compound, the “Any Adverse Event, percent of patients” value [4] was “(92.9) %”, the “Any Serious Adverse Event, number of patients” value [4] was 16 and the “Any Serious Adverse Event, percent of patients” value [4] was “(57.1) %”. For the same compound, the “Any Severe Adverse Event, number of patients” value [4] was 9, the “Any Severe Adverse Event, percent of patients” value [4] was “(32.1) %” and the “Any Severe Treatment-Related Adverse Event, number of patients” value [4] was 2. The “Any Severe Treatment-Related Adverse Event, percent of patients” value [4] was “(7.1) %”, the “Any Treatment-Related Adverse Event, number of patients” value [4] was 6 and the “Any Treatment-Related Adverse Event, percent of patients” value [4] was “(21.4) %”. The “Any Treatment-Related Serious Adverse Event, number of patients” value [4] was 2 and the “Any Treatment-Related Serious Adverse Event, percent of patients” value [4] was “(7.1) %”.
